For seven compounds, viability, T/C and IC50 results are on record in PubChem BioAssay AID1963836 (Molecular Pharmacology Branch, DTP, NCI, 2024).

“And” between values parts separate entries of the source, which are not always exact repeats. Identical values can stand only once.

By viability, T/C is commonly meant the result in the treated group divided by that in the control group, in per cent. By IC50 is commonly meant the concentration at which inhibition is half-maximal.

This experiment concerns 857933-349-R-J2-PDC complex spheroid viability. Briefly: Anticancer human tumor 857933-349-R-J2-PDC patient-derived colon adenocarcinoma cell line growth inhibition [POLQ]. To be noted: for viability, T/C: stronger effect = lower value. On the procedure: Multicellular complex tumor spheroid response to Polymerase (POL) inhibitors (novobiocin, ART-558, RP6685) in combination with a variety of drugs and investigational agents in selected tumor cell lines
The POL inhibitors (novobiocin, ART-558, and RP6685) were evaluated both individually and in combination with standard of care and investigational anticancer small molecules within a complex spheroid model of solid tumors. . Complex spheroids include a stromal component modeled by human endothelial cells (HUVEC) and fibroblasts modeled by human mesenchymal stem cells (MSCs). The concentration ranges selected for each drug and investigational agent were based upon clinically achievable concentrations if the clinical Cmax of the agent was known.
Compounds. The drugs and investigational agents: novobiocin (NSC847541), ART-558 (NSC835418), RP-6685 (NSC848927), peposertib (NSC802822), ceralasertib (NSC780249), elimusertib (NSC800525), camonsertib (NSC841442), AZD-1390 (NSC803789), olaparib (NSC753686), talazoparib (NSC767125), rucaparib (NSC756644), sotorasib (NSC818433), MRTX-1133 (NSC836407), SN-38 (NSC673596), topotecan (NSC609699), epotoside (NSC141540), doxorubicin (NSC123127), gemcitabine (NSC613327), 5-fluorouracil (NSC19893), paclitaxel (NSC125973), vemurafenib (NSC761431), MSA-2 (NSC828583), SN-011 (NSC837082), adavosertib (NSC754352), prexasertib (NSC758257), carboplatin (NSC241240) and oxaliplatin (NSC266046), were obtained from the National Cancer Institute (NCI) Developmental Therapeutics Program Chemical Repository (21). The FDA-approved anticancer drug set is available from the Developmental Therapeutics Program at https://dtp.cancer.gov/organization/dscb/obtaining/. […] The stock solutions were prepared in dimethyl sulfoxide (DMSO, Sigma-Aldrich, St. Louis, MO, cat. D2650), except for the platinum compounds which were prepared in saline (Quality Biological, Gaithersburg, MD, cat. 114-055-101), at 800-fold the tested concentration and stored at -70 degrees C prior to their use. All drugs and investigational agents were tested over a range starting from a high concentration at or near the clinical Cmax and decreasing in half-log increments. If the clinical Cmax for an agent had not been determined, the highest concentration tested was 10 microM, except for SN-38, which was tested at a high concentration of 1 microM.
Cell Culture. All cells were maintained in an incubator at 37 degrees C and 5% CO2 with 95% humidity. The PDC lines were cultured according to standard operating procedures established by the NCI PDMR (https://pdmr.cancer.gov). Table 3 of the manuscript, lists the cell lines along with the number of the three cell types plated to form the mct-spheroids and media for tumor cell growth. After thawing, all PDC lines, except 997537-175-T-J1-PDC and 415267-285-R-J2-PDC, were cultured in Matrigel-coated flasks prepared with a working solution of 1X Ham's F-12 nutrient mix, without supplementation (Thermo Fisher Scientific, cat. 11765054), 100 U/mL penicillin-streptomycin (Thermo Fisher Scientific, cat. 15140122), and 2.5% Matrigel (Corning Inc., Corning, NY, cat. 354248) for the first three passages. The two PDC lines 997537-175-T-J1-PDC and 415267-285-R-J2-PDC were cultured on uncoated flasks. The 857933-349-R-J2-PDC line was cultured in 6C/Colon 1B media containing advanced DMEM/F-12 (Thermo Fisher Scientific, cat. 12634028), 10 mM HEPES (Thermo Fisher Scientific, cat. 15630080), 1X GlutaMAX supplement (Thermo Fisher Scientific, cat. 35050061), 0.1 mg/mL primocin (InvivoGen, San Diego, CA, cat. ant-pm-2), 10% defined fetal bovine serum, heat inactivated (HyClone Laboratories Inc., Logan, UT, cat. SH30070.03HI), 50% L-WRN conditioned media (ATCC, cat. CRL-3276), 1.25 mM N-Acetyl-L-cysteine (Sigma-Aldrich, cat. A9165), 10 mM nicotinamide (Sigma-Aldrich, cat. N0636), 1X B-27 supplement (Thermo Fisher Scientific, cat. 17504044), 1X N-2 supplement (Thermo Fisher Scientific, cat. […]
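Further: spheroids exposed to compounds for seven days before readout.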

As to `C#Cc1c(F)ccc2cc(O)cc(-c3ncc4c(N5CC6CCC(C5)N6)nc(OCC56CCCN5CC(F)C6)nc4c3F)c12` (stereo not drawn), the viability, T/C reads like this: (compound 0.0316 µM) 85.3% and 89.3% and 102%; (compound 0.1 µM) 101% and 91.6% and 82.3%; (compound 0.316 µM) 95.7% and 95.3% and 81.3%; (compound 1 µM) 87.1% and 81.7% and 96.6%; (compound 3.16 µM) 99.9% and 71.5% and 70.8%; (compound 10 µM) 76.4% and 80.9% and 93.4%. In addition, the IC50 (curve of compound) is above 10000 nM.
Consider `CC1COCCN1c1cc(C2(O)CC3CCC(C2)O3)c2cnn(-c3ccn[nH]3)c2n1` (stereo not drawn), for which the viability, T/C is 62.7% and 58.8% and 79.7% (compound 0.0316 µM); 51.6% and 50.3% and 63.5% (compound 0.1 µM); 52.9% and 47% and 57.7% (compound 0.316 µM); 44.2% and 42.2% and 45.6% (compound 1 µM); 39.6% and 45.2% and 46.2% (compound 3.16 µM); 45.9% and 49.6% and 45.8% (compound 10 µM). Also, the IC50 (curve of compound) was 232 nM and 94.2 nM and 805 nM.
For `CCc1cc2c(N3CCc4c(cc(Cn5ccnc5)cc4-c4cn(C)nc4C(F)(F)F)C3=O)cc(C)nc2c(OC)n1`, the viability, T/C was 87% and 98.2% and 83.5% (compound 0.0316 µM); 84.3% and 88% and 82% (compound 0.1 µM); 97.7% and 105% and 92.7% (compound 0.316 µM); 61.2% and 84.8% and 84% (compound 1 µM); 65% and 78.1% and 61.3% (compound 3.16 µM); 54.8% and 53.6% and 58.1% (compound 10 µM). Further, where the note is “curve of compound”, the IC50 is above 10000 nM.
Turning to `COC1C(OC(N)=O)C(O)C(Oc2ccc3c(O)c(NC(=O)c4ccc(O)c(CC=C(C)C)c4)c(=O)oc3c2C)OC1(C)C` (stereo not drawn), for the setting “compound alone, run of 01/08/2024”, the IC50 is above 10000 nM.
Take `COc1cc2cc(C(=O)CCC(=O)O)sc2cc1OC`: the viability, T/C reads like this: (compound 0.0316 µM) 92.5% and 89% and 101%; (compound 0.1 µM) 88.6% and 95.5% and 91.5%; (compound 0.316 µM) 94.9% and 102% and 82.7%; (compound 1 µM) 88.2% and 110% and 92.5%; (compound 3.16 µM) 102% and 111% and 116%; (compound 10 µM) 84.1% and 95% and 89.9%. The IC50 (curve of compound) was above 10000 nM.
Regarding `O=C(Nc1ccc(O)c(NS(=O)(=O)c2ccc(F)cc2)c1)c1ccc(-c2ccccc2)cc1`, the viability, T/C is, setting by setting: (compound 0.0316 µM) 93.1% and 99.4% and 97.2%; (compound 0.1 µM) 97.3% and 105% and 102%; (compound 0.316 µM) 82.5% and 107% and 105%; (compound 1 µM) 94.7% and 94% and 82.6%; (compound 3.16 µM) 95.3% and 86.2% and 100%; (compound 10 µM) 77.8% and 88.1% and 78.2%. For the same compound, where the note is “curve of compound”, the concentration for half-maximal inhibition (IC50) was above 10000 nM.
As for `CC1COCCN1c1cc(-c2ccnn2C)c2ccnc(-c3ccn[nH]3)c2n1` (stereo not drawn) + COC1C(OC(N)=O)C(O)C(Oc2ccc3c(O)c(NC(=O)c4ccc(O)c(CC=C(C)C)c4)c(=O)oc3c2C)OC1(C)C, the IC50 reads like this: (curve of first compound, second compound 0.0316 µM) 209 nM; (curve of first compound, second compound 0.1 µM) 282 nM; (curve of first compound, second compound 0.316 µM) 157 nM; (curve of first compound, second compound 1 µM) 257 nM; (curve of first compound, second compound 3.16 µM) 170 nM; (curve of first compound, second compound 10 µM) 311 nM. In addition, the viability, T/C was 89.2% (second compound 0.0316 µM, first compound 0.0316 µM); 66.2% (second compound 0.0316 µM, first compound 0.1 µM); 40.3% (second compound 0.0316 µM, first compound 0.316 µM); 35.8% (second compound 0.0316 µM, first compound 1 µM); 39.2% (second compound 0.0316 µM, first compound 3.16 µM); 48.6% (second compound 0.0316 µM, first compound 10 µM). Besides, the viability, T/C runs as follows: (second compound 0.1 µM, first compound 0.0316 µM) 80.3%; (second compound 0.1 µM, first compound 0.1 µM) 77.6%; (second compound 0.1 µM, first compound 0.316 µM) 47.2%; (second compound 0.1 µM, first compound 1 µM) 30.7%; (second compound 0.1 µM, first compound 3.16 µM) 41.6%; (second compound 0.1 µM, first compound 10 µM) 52.8%. The viability, T/C runs as follows: (second compound 0.316 µM, first compound 0.0316 µM) 71.9%; (second compound 0.316 µM, first compound 0.1 µM) 55.7%; (second compound 0.316 µM, first compound 0.316 µM) 41.2%; (second compound 0.316 µM, first compound 1 µM) 37.1%; (second compound 0.316 µM, first compound 3.16 µM) 34.2%; (second compound 0.316 µM, first compound 10 µM) 51.7%. Besides, the viability, T/C is 58.1% (second compound 1 µM, first compound 0.0316 µM); 73.3% (second compound 1 µM, first compound 0.1 µM); 46.4% (second compound 1 µM, first compound 0.316 µM); 33.6% (second compound 1 µM, first compound 1 µM); 56.2% (second compound 1 µM, first compound 3.16 µM); 50% (second compound 1 µM, first compound 10 µM). For the same compound, the viability, T/C runs as follows: (second compound 3.16 µM, first compound 0.0316 µM) 76.4%; (second compound 3.16 µM, first compound 0.1 µM) 57.5%; (second compound 3.16 µM, first compound 0.316 µM) 40.6%; (second compound 3.16 µM, first compound 1 µM) 37%; (second compound 3.16 µM, first compound 3.16 µM) 38%; (second compound 3.16 µM, first compound 10 µM) 48.7%. The viability, T/C was 65.2% (second compound 10 µM, first compound 0.0316 µM); 63.2% (second compound 10 µM, first compound 0.1 µM); 50.1% (second compound 10 µM, first compound 0.316 µM); 39.2% (second compound 10 µM, first compound 1 µM); 49.1% (second compound 10 µM, first compound 3.16 µM); 50.3% (second compound 10 µM, first compound 10 µM).
